Tested on: P. boydii ATCC 38283
Test: Checkerboard MIC assay, FICI
Format: cell-based, Pseudallescheria boydii
Conditions: combination with Compound 1
Text: The following assay was used to determine the minimum inhibitory concentration (MIC) and fractional inhibitory concentration index (FICI) for combinations of an antifungal agent and a glycopeptide antibacterial agent. This assay and methods for calculating FICI are well known in the art. See, for example, Eliopoulos, E. G. and R. Moellering, Jr. “Antimicrobial Combinations” in Antibiotics in Laboratory Medicine, edited by V. Lorian, 4th Ed., Williams & Wilkins, Baltimore, MD, pp. 330-396 (1996); […] et al., Antimicrobial Agents and Chemotherapy 47(4):1416-1418 (2003); or […] et al., Antimicrobial Agents and Chemotherapy 46(10):3323-3326 (2002). […] The MIC of the glycopeptide antibacterial agent determined from this experiment was used in FIC calculations. […]

C[C@@H]1[C@H](O)[C@@H](C)/C=C/C=C/C=C/C=C/C=C/C=C/C=C/[C@H](O[C@@H]2O[C@H](C)[C@@H](O)[C@H](N)[C@@H]2O)C[C@@H]2O[C@](O)(C[C@@H](O)C[C@@H](O)[C@H](O)CC[C@@H](O)C[C@@H](O)CC(=O)O[C@H]1C)C[C@H](O)[C@H]2C(=O)O [Amphotericin B]
FICI: 0.38

C[C@@H]1[C@H](O)[C@@H](C)/C=C/C=C/CC/C=C/C=C/C=C/C=C/C(O[C@H]2O[C@H](C)[C@@H](O)[C@H](N)[C@@H]2O)CC2O[C@](O)(CC(O)C(O)CCC(O)CC(O)CC(O)CC(=O)O[C@H]1C)CC(O)C2C(=O)O (some centres unmarked) [Nystatin]
FICI: 0.38

Reference: patent US7521418B2, “Use of a polyene macrolide antifungal agent in combination with a glycopeptide antibacterial agent” (Theravance, Inc., priority 2003, dated 2009)
